Drawing on ChEMBL document CHEMBL4043222, “Pyrrolizines: Design, synthesis, anticancer evaluation and investigation of the potential mechanism of action” (Bioorg Med Chem, 2017), this text covers Activity and inhibition for one molecule.

The test system of assay [1] is MCF7. Kind of assay: Induction of apoptosis in human MCF7 cells assessed as viable cells level at 1 uM incubated for 24 hrs by Annexin V PI/FITC staining based flow cytometry (reference value: 72.3%). Type of assay: functional. On the technique in general: A flow cytometer gives signals particle by particle.
Assay [2] relates to MCF7. Kind of assay: Induction of apoptosis in human MCF7 cells assessed as late apoptotic cells level at 5 uM incubated for 24 hrs by Annexin V PI/FITC staining based flow cytometry (reference value: 9%). Type of assay: functional.
Assay [3] relates to MCF7. Briefly: Induction of apoptosis in human MCF7 cells assessed as early apoptotic cells level at 1 uM incubated for 24 hrs by Annexin V PI/FITC staining based flow cytometry (reference value: 17.4%). Type of assay: functional.
Assay [4] has as its target Ribosomal protein S6 kinase alpha-5 (Homo sapiens) (UniProt O75582). Briefly: Inhibition of MSK1 (unknown origin) at 10 uM using [33P]-ATP after 20 to 40 mins by scintillation counting method.
Assay [5] addresses 3-phosphoinositide-dependent protein kinase 1 (Homo sapiens) (UniProt O15530). Briefly: Inhibition of PDK1 (unknown origin) at 10 uM using [33P]-ATP after 20 to 40 mins by scintillation counting method.
Assay [6] addresses Rhodopsin kinase GRK1 (Homo sapiens) (UniProt Q15835). Briefly: Inhibition of GRK1 (unknown origin) at 10 uM using [33P]-ATP after 20 to 40 mins by scintillation counting method.
Assay [7] deals with Mitogen-activated protein kinase kinase kinase 5 (Homo sapiens) (UniProt Q99683). Kind of assay: Inhibition of ASK1 (unknown origin) at 10 uM using [33P]-ATP after 20 to 40 mins by scintillation counting method.
Assay [8] has as its system MCF7. Briefly: Induction of apoptosis in human MCF7 cells assessed as late necrosis cells level at 10 uM incubated for 24 hrs by Annexin V PI/FITC staining based flow cytometry (reference value: […]). Type of assay: functional.
The subject of assay [9] is MCF7. Briefly: Induction of apoptosis in human MCF7 cells assessed as early apoptotic cells level at 10 uM incubated for 24 hrs by Annexin V PI/FITC staining based flow cytometry (reference value: 17.4%). Type of assay: functional.

Molecules are shown by their SMILES.

By inhibition is commonly meant the relative decrease from the control value, in per cent.

Sequence of 3-phosphoinositide-dependent protein kinase 1 (Homo sapiens) (O15530 whole entry): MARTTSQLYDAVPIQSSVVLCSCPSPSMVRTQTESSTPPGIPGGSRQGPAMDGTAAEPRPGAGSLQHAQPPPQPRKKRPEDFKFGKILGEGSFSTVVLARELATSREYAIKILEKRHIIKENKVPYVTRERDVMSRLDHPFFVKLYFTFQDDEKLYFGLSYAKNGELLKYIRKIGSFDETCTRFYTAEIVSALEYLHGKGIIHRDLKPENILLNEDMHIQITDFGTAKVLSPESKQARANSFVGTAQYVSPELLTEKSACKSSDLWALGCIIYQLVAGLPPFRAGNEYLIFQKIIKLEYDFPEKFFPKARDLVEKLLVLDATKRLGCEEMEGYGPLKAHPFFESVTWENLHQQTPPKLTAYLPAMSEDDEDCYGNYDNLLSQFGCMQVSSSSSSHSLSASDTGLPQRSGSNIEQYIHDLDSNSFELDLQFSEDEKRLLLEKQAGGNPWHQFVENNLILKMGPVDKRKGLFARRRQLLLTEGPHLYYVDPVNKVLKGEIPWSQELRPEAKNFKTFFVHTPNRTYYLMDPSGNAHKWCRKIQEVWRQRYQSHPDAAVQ
Sequence of Ribosomal protein S6 kinase alpha-5 (Homo sapiens) (O75582 whole entry, looked up): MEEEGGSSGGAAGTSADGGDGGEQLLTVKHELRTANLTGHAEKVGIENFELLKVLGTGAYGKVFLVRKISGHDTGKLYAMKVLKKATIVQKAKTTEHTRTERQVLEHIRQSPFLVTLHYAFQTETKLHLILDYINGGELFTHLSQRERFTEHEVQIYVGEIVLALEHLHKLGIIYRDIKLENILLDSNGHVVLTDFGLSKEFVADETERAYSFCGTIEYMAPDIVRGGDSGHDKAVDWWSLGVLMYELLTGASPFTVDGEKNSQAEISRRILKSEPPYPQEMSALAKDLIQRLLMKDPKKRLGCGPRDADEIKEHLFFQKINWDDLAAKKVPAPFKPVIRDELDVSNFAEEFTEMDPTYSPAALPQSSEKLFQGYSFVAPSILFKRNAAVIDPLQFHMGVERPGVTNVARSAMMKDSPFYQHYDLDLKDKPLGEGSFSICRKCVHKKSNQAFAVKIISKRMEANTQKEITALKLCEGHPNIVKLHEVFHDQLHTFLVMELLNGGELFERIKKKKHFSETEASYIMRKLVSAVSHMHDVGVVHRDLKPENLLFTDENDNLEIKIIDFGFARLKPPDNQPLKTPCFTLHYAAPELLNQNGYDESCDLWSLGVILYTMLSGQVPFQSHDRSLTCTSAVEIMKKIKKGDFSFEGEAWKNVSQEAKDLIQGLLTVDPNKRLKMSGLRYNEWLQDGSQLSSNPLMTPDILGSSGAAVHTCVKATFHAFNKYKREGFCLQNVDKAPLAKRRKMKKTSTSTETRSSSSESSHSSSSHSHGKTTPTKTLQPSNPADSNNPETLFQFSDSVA
Sequence of Mitogen-activated protein kinase kinase kinase 5 (Homo sapiens) (Q99683 whole entry): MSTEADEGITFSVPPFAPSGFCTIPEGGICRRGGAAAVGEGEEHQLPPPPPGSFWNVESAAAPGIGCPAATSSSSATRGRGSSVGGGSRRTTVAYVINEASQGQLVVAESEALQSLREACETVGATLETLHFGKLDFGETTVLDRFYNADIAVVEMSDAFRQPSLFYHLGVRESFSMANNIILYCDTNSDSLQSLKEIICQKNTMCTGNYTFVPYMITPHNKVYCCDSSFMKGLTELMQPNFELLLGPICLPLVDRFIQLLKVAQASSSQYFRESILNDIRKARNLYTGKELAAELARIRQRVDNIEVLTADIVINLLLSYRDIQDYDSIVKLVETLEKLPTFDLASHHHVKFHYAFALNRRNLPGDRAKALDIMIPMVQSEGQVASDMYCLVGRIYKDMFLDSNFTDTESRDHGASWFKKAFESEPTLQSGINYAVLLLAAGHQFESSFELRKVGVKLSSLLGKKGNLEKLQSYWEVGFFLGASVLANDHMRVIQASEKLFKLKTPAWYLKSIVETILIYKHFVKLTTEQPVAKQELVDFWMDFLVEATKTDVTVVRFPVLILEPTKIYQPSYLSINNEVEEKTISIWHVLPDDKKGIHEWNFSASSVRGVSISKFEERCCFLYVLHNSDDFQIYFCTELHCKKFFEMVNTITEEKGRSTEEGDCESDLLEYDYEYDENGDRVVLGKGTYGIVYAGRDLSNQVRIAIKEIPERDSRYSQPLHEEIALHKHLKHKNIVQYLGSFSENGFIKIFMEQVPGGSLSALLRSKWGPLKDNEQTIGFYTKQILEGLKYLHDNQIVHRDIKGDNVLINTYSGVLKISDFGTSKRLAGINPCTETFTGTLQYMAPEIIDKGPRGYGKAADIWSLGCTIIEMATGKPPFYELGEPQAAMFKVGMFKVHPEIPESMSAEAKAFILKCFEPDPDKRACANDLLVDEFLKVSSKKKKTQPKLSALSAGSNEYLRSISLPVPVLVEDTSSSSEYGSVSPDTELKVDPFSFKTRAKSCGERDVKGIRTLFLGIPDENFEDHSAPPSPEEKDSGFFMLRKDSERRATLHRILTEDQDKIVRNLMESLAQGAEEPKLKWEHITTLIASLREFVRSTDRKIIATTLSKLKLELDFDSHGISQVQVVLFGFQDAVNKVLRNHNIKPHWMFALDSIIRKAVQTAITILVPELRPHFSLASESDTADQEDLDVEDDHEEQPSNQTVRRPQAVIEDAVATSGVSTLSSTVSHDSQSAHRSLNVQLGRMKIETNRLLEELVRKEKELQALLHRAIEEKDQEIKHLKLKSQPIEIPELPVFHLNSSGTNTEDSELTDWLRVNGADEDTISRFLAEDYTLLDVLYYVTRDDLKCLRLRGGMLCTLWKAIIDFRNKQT
Sequence of Rhodopsin kinase GRK1 (Homo sapiens) (Q15835 whole entry): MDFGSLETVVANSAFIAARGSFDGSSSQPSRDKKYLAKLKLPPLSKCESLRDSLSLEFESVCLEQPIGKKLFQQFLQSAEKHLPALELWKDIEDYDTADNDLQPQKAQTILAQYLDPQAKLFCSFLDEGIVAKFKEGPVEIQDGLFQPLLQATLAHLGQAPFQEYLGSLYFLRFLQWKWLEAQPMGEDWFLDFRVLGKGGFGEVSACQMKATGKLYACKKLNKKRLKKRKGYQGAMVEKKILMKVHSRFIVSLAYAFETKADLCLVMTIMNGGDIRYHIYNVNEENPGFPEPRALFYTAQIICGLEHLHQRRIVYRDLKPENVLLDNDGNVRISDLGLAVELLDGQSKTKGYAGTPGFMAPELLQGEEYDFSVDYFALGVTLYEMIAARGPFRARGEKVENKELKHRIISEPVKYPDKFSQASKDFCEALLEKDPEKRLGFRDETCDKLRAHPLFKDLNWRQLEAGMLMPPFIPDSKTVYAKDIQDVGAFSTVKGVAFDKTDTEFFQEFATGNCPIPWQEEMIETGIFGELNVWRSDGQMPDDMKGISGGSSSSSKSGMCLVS

In the case of `Cc1ccc(NC(=O)c2c(N=Cc3ccc4ccccc4c3)c(C#N)c3n2CCC3)cc1`, the Activity in the assay with MCF7 [1] is listed as 72.2%; with MCF7 [2], 8.5%; with MCF7 [3] it was 16.3%; with MCF7 [8], 0.8%; in the assay on MCF7 [9], 24.2%. For the same molecule, the inhibition is -43% in [4], -27% in [5], 7% in assay [6] and -19% in assay [7].
